Experimental data reported in patent publication US9334272B2, “Derivatives of purinic and pyrimidinic antiviral agents and use thereof as potent anticancer agents” (Ramot at Tel-Aviv University Ltd., priority 2007, dated 2016).

Experiments:
[1] = system: 3LLD122 Lewis lung carcinoma; assay: Metastatic Lewis lung carcinoma (3LL) model; type: in vivo, mice; details: Compound 6 30 mg/kg, Compound 7 25 mg/kg, per os thrice per week, 21 days; p<0.02 vs acyclovir
Method: Female C57/BL mice, 7-10 weeks old, were acclimated for ten days. All in vivo experiments were conducted according to the NIH Laboratory Animal Care Guidelines and in accordance with the guidelines and approval of the Tel Aviv University Committee for Animal Experimentation.
The subclone 3LLD122 of 3LL used in the study was selected for its aggressive and invasive nature. […] The animals were sacrificed after 21 days of treatment, their lungs were weighed, stained with Bouin's fixative and the metastatic lesions were scored double-blindly.

[2] = system: acetylated histone H4; assay: In vivo histone H4 acetylation in 4T1 tumors (Western blot); set-up: species or system mice; details: 100 mg/kg each, 4 hours after treatment, vs vehicle
Method: For the determination of in vitro histone acetylation, 2.5-3×10^6 cells, seeded in 100 mm culture dishes, were supplemented with RPMI medium containing 10% heat inactivated FCS and were treated with the drugs the following day. At the specified times post-treatment, the cells were removed with a rubber policeman, centrifuged, washed, lysed with lysis buffer (PBS, Nonidet® NP-40 1%, sodium deoxycholate 0.5%, sodium dodecyl sulfate (SDS) 0.1%, 1 mM phenylmethylsulfonyl fluoride (PMSF), 1 mM sodium orthovanadate, and 1 μM each of leupeptin and pepstatin) and centrifuged at 10,000 g for 10 minutes at 4° C. […] The extract was then lyophilized, and protein concentration was determined with a BCA kit (Pierce, USA). […] The fold increase of acetylated histones was determined by the ratio of band intensities of treated and untreated cells or mice, normalized to loading control (total histone H3).
Cell lysates or acid extracted histones were solubilized in a concentrated (×4) loading buffer (62.5 mM Tris-HCl, pH 6.8, 1% SDS, 10% glycerol v/v, 1% dithiothreitol (DTT) and 0.1 mg/ml bromophenol blue). […] The membrane was exposed for 5 minutes to Chemiluminescence BioMax light film (Kodak, USA) and the intensity of the bands was measured with a VersaDoc instrument with a Quantityl program (Bio-Rad, USA). […]

[3] = system: 4T1 murine breast carcinoma; assay: Metastatic 4T1 breast carcinoma model; type: in vivo, mice; details: 4T1 model; for anti-cancer activity (number of metastases and lung weight): 40 or 80 mg/kg, FIG. 18
Method: The syngeneic murine breast carcinoma metastatic model was performed with 8-10 weeks old BALB-c mice implanted with 4T1 cells. When the tumor volume reached 75-180 mm^3 (after ˜10 days), treatment was initiated for an additional 21 days. At termination, the animals were sacrificed and their lungs removed, stained with Bouin's solution, and lung lesions were scored under an illuminated magnifying glass.

[4] = system: ICR mice; assay: Acute toxicity assay in mice; type: in vivo; details: 2 weeks
Description: (§1) Male ICR mice, 8 weeks old (Harlan, Israel) were acclimated for 10 days before administration of the tested compounds. The animals were monitored for two weeks and weighed three times per week.

[5] = Acute toxicity assay in mice; type: in vivo; details: male, mouse, in vivo; single per os dose, ICR mice
Description: as §1

[6] = system: U-251 cells; assay: Apoptosis/cell death by annexin V-FITC and propidium iodide FACS, U-251 cells; type: cell-based; details: U-251 cells, 24 hours
Method: Cells were seeded in six-well plates (10^5 cells/well) for 24 hours and were then treated as specified, trypsinized, washed with PBS, double-stained with annexin V-FITC (fluorescein isothiocyanate) and propidium iodide, according to the manufacturer's instructions and subjected to flow cytometry analysis (FACScalibur cytometer, Becton Dickinson).

[7] = system: U-251 cells; assay: Hoechst viability assay, U-251 glioma cells; type: cell-based, human; details: Homo sapiens, 72 hours, Hoechst, read-out: IC50
Method: (§2) Cells (in quadruplicate) at the specified density were suspended in 200 μL medium supplemented with 10% FCS seeded in 96-well plates for 24 hours, then exposed to the drugs for 72 hours. The viability of the cells was determined by Hoechst fluorescent assay as described by Nudelman et al., 2005. Leukemic cell viability after 72 hours of treatment was determined by an MTT (3-(4,5-dimethylthiazol-2-yl)-2,5-diphenyltetrazolium bromide) assay as described by Levovich et al., 2007.
(§3) IC50 values were determined by linear regression of the percentage of survival following drug titration.

[8] = system: U-251 cells; assay: Mitochondrial membrane potential (JC-1 staining), U-251 cells; type: cell-based, human; details: 60 μM, 24 hour treatment
[9] = system: 22RV1 cells; assay: Hoechst viability assay, 22RV1 prostate carcinoma cells; type: cell-based, human; details: Homo sapiens, 72 hours, Hoechst, read-out: IC50
Method: as §2, §3

[10] = system: phospho-H2AX (Ser139); assay: Phospho-H2AX Western blot, U-251 cells; type: cell-based, human; details: 60 μM, 0.5, 2 or 24 hours, peak after 2 hours
Method: Cell lysates or acid extracted histones were solubilized in a concentrated (×4) loading buffer (62.5 mM Tris-HCl, pH 6.8, 1% SDS, 10% glycerol v/v, 1% dithiothreitol (DTT) and 0.1 mg/ml bromophenol blue). Proteins (10-40 μg) were run on SDS-PAGE, transferred to a nitrocellulose membrane (Schleicher & Schuell, Germany) and probed with the primary antibodies, followed by incubation with a horseradish peroxidase (HRP)-goat anti-rabbit IgG or HRP-rabbit anti-mouse IgG as secondary antibodies. HRP bound to the secondary antibodies was visualized by the enhanced chemiluminescence method using the Western Blotting Luminol reagent (Santa Cruz, Calif., USA). The membrane was exposed for 5 minutes to Chemiluminescence BioMax light film (Kodak, USA) and the intensity of the bands was measured with a VersaDoc instrument with a Quantityl program (Bio-Rad, USA). The fold increase of each specific protein was determined by the ratio of band intensities of treated and untreated cells, normalized to loading control (actin or total histone H3).

[11] = system: rat primary cardiomyocytes; assay: ROS production (DCF-DA) in rat primary cardiomyocytes; type: cell-based; details: 2 μM
Method: Neonatal rat ventricular cardiomyocytes were isolated and cultured in collagen coated culture dishes as described by Shalitin et al., 1996. Growth medium contained DMEM:Ham's F12 (1:1), fetal calf serum (10%) and antibiotics. Treatment was administered to spontaneously beating cardiomyocytes 48 hours after plating.

[12] = system: 4T1 cells; assay: Hoechst viability assay, 4T1 breast carcinoma cells (Dox combination); type: cell-based, murine; details: Mus musculus, 72 hours, 3 experiments
Method: as §2, §3
The combination index for drug interaction was calculated by Chou's Median Effect Analysis (MEA) [Chou, 2006]. The combination index (CI) was defined as CI=D1/(DM)1+D2/(DM)2, where D1 and D2 are the doses of drug 1 and drug 2, respectively, (DM)1 and (DM)2 are the doses of drug 1 and drug 2 and their mixture (in a specified ratio) required to produce a median effect, e.g., IC50. CI<1, =1 or >1 indicates synergism, additive effect, and antagonism respectively.

[13] = system: U-251 cells; assay: Reactive oxygen species by DCF-DA FACS, U-251 cells; type: cell-based, human; details: 2 hour treatment
Method: ROS levels were determined by FACS analysis of U-251 cells treated with dichlorodihydrofluorescein diacetate (DCF-DA), which becomes fluorescent when oxidized.

[14] = system: U-251 cells; assay: Cell cycle analysis (propidium iodide flow cytometry), U-251 cells; type: cell-based, human; details: 24 hours
Method: Cells (4×10^5) were seeded in 35 mm culture dishes and after 24 hours were starved in medium without serum for an additional 24 hours, and then treated with the drug for an additional 24 hours. The cells were then trypsinized to a single cell suspension in PBS, washed, and resuspended in PBS at a concentration of 10^6 cells/mL. The cells were fixed with 70% ethanol for 30 minutes at 4° C., centrifuged and resuspended in 1 ml PBS containing 0.1% Tween 20 and 0.05% bovine serum albumin (BSA). RNase free of DNase was added, and the cell suspension (10^6 cells) was incubated at […] for 30 minutes. The cell suspension was then chilled on ice to a temperature in the range of 2 to 8° C. Propidium iodide (50 μg/mL) was added to the cell suspension, which was than kept in the dark. Red fluorescence (>630 nm) was analyzed on the flow cytometer.

[15] = molecular target: T1, proteasome (Homo sapiens, UniProt P28074); assay: Proteasome activity assay, U-251 cells; type: cell-based; details: 4 or 24 hours, alone or in combination
T1 construct: proteasome activity in U-251 cells treated for 4 or 24 hours; endogenous in cells; host or cells: U-251 cells (lysates of treated cells)
T1 sequence (P28074 60-263): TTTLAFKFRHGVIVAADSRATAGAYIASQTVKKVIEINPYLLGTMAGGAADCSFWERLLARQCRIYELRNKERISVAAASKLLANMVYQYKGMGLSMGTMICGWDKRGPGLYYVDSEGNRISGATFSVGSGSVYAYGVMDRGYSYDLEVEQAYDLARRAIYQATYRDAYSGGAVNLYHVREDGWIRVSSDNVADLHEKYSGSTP
Method: The peptidase or chymotrypsin-like activity of the proteasome was assayed using N-succinyl-Leu-Leu-Val-Tyr-7-amido-4-methylcoumarin. The lysates (100 μL) were incubated with 13 (M of the substrate in 100 mM Tris, pH 7.5, for 1 hour with shaking at room temperature. The reaction was stopped by addition of ice-cold ethanol, and the samples were centrifuged for 5 minutes at 2500 g. The supernatants were collected and the fluorescence was measured with excitation/emission filters of 390/460 nm using the FluoStar fluorimeter. The protein concentration was determined using a BCATM kit (Pierce) and the proteasome activity was derived from the ratio of fluorescence at 460 nm/(g of protein. The percentage of proteasome activity was calculated relative to untreated cells.

For `CCCC(=O)Nc1nc2c(ncn2COCCOC(=O)CCC)c(=O)[nH]1` [Compound 7, N-butyryl-9-(2-butyryloxy)ethoxymethylguanine], which “number of lung macro-lesions (anti-metastatic activity)” value [1] is on record?
The value was “significant anti-metastatic activity”.

And the “levels of acetylated H4 in tumors” value [2]?
Its value is “significantly higher levels of acetylated H4”.

And the lung weight ([3]; 25 mg/kg, p<0.05)?
The lung weight was “reduction in lung weight”.

And the “number of observed lung lesions” value ([3]; 25 mg/kg, p<0.05)?
The value was “reduction in the number of observed lung lesions”.

What about the “anti-cancer activity (number of metastases and lung weight)” value (shortened to “anti-cancer activity”) [3] of the same compound?
The value was “significant anti-cancer activity”.

And the “Survival (%)” value ([4]; single per os dose 150 mg/kg)?
Its value is 100%.

What about the “Survival (%)” value ([4]; single per os dose 200 mg/kg) of the same compound?
The value was 100%.

What about the “Survival (%)” value ([4]; single per os dose 250 mg/kg) of the same compound?
The value was 100%.

What about the “Survival (%)” value ([4]; single per os dose 500 mg/kg) of the same compound?
The value was 100%.

What about the “Survival (%)” value ([4]; single per os dose 750 mg/kg) of the same compound?
The value was 100%.

What about the LD50 at 2 weeks [5] of the same compound?
The LD50 at 2 weeks was > 750 mg/kg.

With `CCCCCCCC(=O)Nc1nc2c(ncn2COCCOC(=O)CCCCCCC)c(=O)[nH]1` [Compound 8, N-octanoyl-9-(2-octanoyloxy)ethoxymethylguanine] as the compound, how does the “anti-cancer activity” value [3] read?
The value was “little, if any anticancer activity”.

Which “percentage of apoptotic cells” value [6] does the source give for `CCCC(CCC)C(=O)OCCOCn1cnc2c(=O)[nH]c(N)nc21` [Compound 12, 9-(2-valproyloxy)ethoxymethylguanine] here?
The value was “increased the percentage of apoptotic cells in a dose dependent manner”.

What about the IC50 [7] of the same compound?
The IC50 was 251 ± 12 µM.

What about the mitochondrial membrane potential [8] of the same compound?
The mitochondrial membrane potential was “no apparent effect”.

What about the IC50 [9] of the same compound?
The IC50 was 241 ± 12 µM.

With `CCCCCC(=O)Nc1nc2c(ncn2COCCOC(=O)CCCCC)c(=O)[nH]1` [Compound 20, N-hexanoyl-9-(2-hexanoyloxy)-ethoxymethylguanine] as the compound, how does the “anti-cancer activity” value [3] read?
Its value is “little, if any anticancer activity”.

With `O=C(/C=C/c1ccccc1)Nc1nc2c(ncn2COCCOC(=O)/C=C/c2ccccc2)c(=O)[nH]1` [Compound 22, N-cinnamoyl-9-(2-cinnamoyloxy)-ethoxymethylguanine] as the compound, how does the mitochondrial membrane potential [8] read?
Its mitochondrial membrane potential is “no apparent effect”.

What about the “level of phosphorylated H2AX” value [10] of the same compound?
The value was “induced an increase in the level of phosphorylated H2AX”.

Which results are given for `CCCC(CCC)C(=O)Nc1nc2c(ncn2COCCO)c(=O)[nH]1` [Compound 23, N-valproyl-9-(2-hydroxy)ethoxymethylguanine]?
IC50 [7]: > 750 µM; mitochondrial membrane potential [8]: no apparent effect; IC50 [9]: 402 ± 22 µM

Which “production of ROS” value [11] does the source give for `COc1cccc2c1C(=O)c1c(O)c3c(c(O)c1C2=O)C[C@@](O)(C(=O)CO)C[C@@H]3O[C@H]1C[C@H](N)[C@H](O)[C@H](C)O1` [doxorubicin, reference compound] here?
Its value is “increased dramatically the production of ROS”.

What about the IC50 [12] of the same compound?
Its IC50 is 0.0165 µM.

Which results are given for `CCCC(CCC)C(=O)O` [valproic acid, reference compound]?
level of oxidation in cells (ROS) [13]: little if any effect; phase of cell-cycle arrest ([14]; 1 mM): G2-M phase; Percentage of cells in G0-G1 stage ([14]; 1000 μM): 20.3%; Percentage of cells in G2-M stage ([14]; 1000 μM): 47.5%; Percentage of cells in S stage ([14]; 1000 μM): 32.5%; inhibitory effect on proteasome activity [15]: only a marginal inhibitory effect
